The nature of this series: solubility in water (statement in the background section). Format: physicochemical. The note with it: compound (I) or a salt thereof.

With `O=c1ccc2ccc(OCCCCN3CCN(c4cccc5sccc45)CC3)cc2[nH]1` [compound (I), 7-[4-(4-benzo[b]thiophen-4-yl-piperazin-1-yl)butoxy]-1H-quinolin-2-one], the solubility in water result is given as “hardly soluble in water”.
